Measured values as given in PMC11198769, “Enhancement of transcription efficiency by TAR-Tat system increases the functional expression of human olfactory receptors” (PLOS ONE, 2024).
Like-named read-outs stand apart in the source and are kept apart here.

Key:
Assay in all cases: hOR assay (GloSensor cAMP luciferase), dose-response
Format in all cases: cell-based
OR52N4 = molecular target: T1, OR52N4 (Homo sapiens, UniProt Q8NGI2); settings: OR52N4, with or without the TAR-Tat system
T1 construct: Lucy tag (N); expressed in transfected cells; host or cells: Flp-In T-REx-293 cells stably expressing RTP1S, Gαolf and Ric8-b
T1 sequence (Q8NGI2 1-321): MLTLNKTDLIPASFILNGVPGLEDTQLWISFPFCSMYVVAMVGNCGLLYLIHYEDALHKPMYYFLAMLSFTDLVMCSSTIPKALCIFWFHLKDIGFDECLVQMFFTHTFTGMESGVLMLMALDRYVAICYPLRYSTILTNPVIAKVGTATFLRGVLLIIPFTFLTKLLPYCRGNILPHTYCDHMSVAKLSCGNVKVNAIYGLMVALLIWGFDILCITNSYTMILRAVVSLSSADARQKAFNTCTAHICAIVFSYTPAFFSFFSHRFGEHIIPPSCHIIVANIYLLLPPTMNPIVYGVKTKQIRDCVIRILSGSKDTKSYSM

OR56B1 = molecular target: T2, OR56B1 (Homo sapiens, UniProt Q8NGI3); settings: OR56B1, with or without the TAR-Tat system
T2 construct: Lucy tag (N); expressed in transfected cells; host or cells: Flp-In T-REx-293 cells stably expressing RTP1S, Gαolf and Ric8-b
T2 sequence (Q8NGI3 1-324): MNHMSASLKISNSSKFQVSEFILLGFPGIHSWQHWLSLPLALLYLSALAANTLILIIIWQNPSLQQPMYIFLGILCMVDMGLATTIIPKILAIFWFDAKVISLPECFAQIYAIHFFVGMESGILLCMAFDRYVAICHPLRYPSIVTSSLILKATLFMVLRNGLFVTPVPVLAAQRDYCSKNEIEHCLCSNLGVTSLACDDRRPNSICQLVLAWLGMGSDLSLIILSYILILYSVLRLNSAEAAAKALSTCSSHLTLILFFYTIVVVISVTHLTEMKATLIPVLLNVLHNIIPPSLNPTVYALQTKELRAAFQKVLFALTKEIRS

OR2W1 = molecular target: T3, OR2W1 (Homo sapiens, UniProt Q9Y3N9); settings: for EC50: read-out: EC50 of n-hexanal concentration-response relationship
T3 construct: Lucy tag (N); FLAG (N); Rho tag (N); expressed in transfected cells; host or cells: Flp-In T-REx-293 cells stably expressing RTP1S, Gαolf and Ric8-b
T3 sequence (Q9Y3N9 1-320): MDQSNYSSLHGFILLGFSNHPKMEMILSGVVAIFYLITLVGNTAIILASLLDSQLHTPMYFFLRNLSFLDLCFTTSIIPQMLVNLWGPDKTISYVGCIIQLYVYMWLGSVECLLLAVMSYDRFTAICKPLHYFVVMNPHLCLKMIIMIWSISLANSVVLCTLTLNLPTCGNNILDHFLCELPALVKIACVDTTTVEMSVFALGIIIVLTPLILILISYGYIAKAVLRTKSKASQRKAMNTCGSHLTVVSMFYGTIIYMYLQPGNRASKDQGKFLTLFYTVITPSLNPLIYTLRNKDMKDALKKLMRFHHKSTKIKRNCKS

OR2J3 = molecular target: T4, OR2J3 (Homo sapiens, UniProt O76001); settings: OR2J3, with and without the TAR-Tat system
T4 construct: Lucy tag (N); FLAG (N); Rho tag (N); expressed in transfected cells; host or cells: Flp-In T-REx-293 cells stably expressing RTP1S, Gαolf and Ric8-b
T4 sequence (O76001 1-311): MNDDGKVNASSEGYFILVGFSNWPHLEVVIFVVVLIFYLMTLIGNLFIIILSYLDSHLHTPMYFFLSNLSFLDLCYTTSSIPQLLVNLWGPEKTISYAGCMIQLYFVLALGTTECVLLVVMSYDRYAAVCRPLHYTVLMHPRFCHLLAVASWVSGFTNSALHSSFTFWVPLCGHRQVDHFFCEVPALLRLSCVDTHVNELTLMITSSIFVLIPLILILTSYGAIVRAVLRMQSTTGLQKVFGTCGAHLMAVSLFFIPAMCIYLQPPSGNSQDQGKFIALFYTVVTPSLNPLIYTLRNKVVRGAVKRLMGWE

OR5K1 = molecular target: T5, OR5K1 (Homo sapiens, UniProt Q8NHB7)
T5 construct: Lucy tag (N); FLAG (N); Rho tag (N); expressed in transfected cells; host or cells: Flp-In T-REx-293 cells stably expressing RTP1S, Gαolf and Ric8-b
T5 sequence (Q8NHB7 1-308): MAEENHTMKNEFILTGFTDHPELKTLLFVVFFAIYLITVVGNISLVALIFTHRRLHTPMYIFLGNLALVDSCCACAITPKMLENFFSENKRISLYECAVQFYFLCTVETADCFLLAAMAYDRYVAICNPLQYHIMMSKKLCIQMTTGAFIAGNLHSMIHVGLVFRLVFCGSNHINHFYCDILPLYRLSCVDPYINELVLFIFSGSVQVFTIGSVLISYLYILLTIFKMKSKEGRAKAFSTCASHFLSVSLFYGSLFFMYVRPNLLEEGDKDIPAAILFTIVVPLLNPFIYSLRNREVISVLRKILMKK

CCCCCC=O [n-hexanal]
concentration-dependent response to n-hexanal (OR52N4): no concentration-dependent response | concentration-dependent response to n-hexanal (OR56B1): no concentration-dependent response | concentration-dependent response to n-hexanal (OR2W1; OR2W1, with and without the TAR-Tat system): Concentration-dependent responses were observed | EC50 (OR2W1; OR2W1/pBApo (without TAR-Tat system)): 21 µM | EC50 (OR2W1; OR2W1/pHEK (with TAR-Tat system)): 60 µM | increase of maximum value of dose-response curve with the TAR-Tat system (OR2W1; OR2W1/pHEK versus OR2W1/pBApo): 2.0 fold | concentration-dependent response to n-hexanal (OR2J3): concentration-dependent responses only with the TAR-Tat system | concentration-dependent response to n-hexanal (OR5K1; OR5K1, with and without the TAR-Tat system): concentration-dependent responses only with the TAR-Tat system | EC50 (OR5K1; OR5K1/pHEK (with TAR-Tat system), read-out: EC50 of n-hexanal concentration-response relationship): 11 µM
